Test results taken from US12139481B2, “Compositions comprising macrocycle derivatives incorporating bridged macrocycles and methods of producing and using same” (Southwestern Oklahoma State University, priority 2015, dated 2024).
Like-named read-outs stand apart in the source and are kept apart here.

How the values were obtained:
[1] = test system: Cryptococcus neoformans ATCC 90113; assay: Antimicrobial microdilution assay against Cryptococcus neoformans (modified CLSI/NCCLS, optical density); type: cell-based; conditions: for X more potent than Amphotericin B: C. neoformans, ratio of molar IC50 to Amphotericin B
Method in brief: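 Fungicidal endpoint taken by subculturing 5 μL from each clear well onto agar, MFC being the lowest concentration with no regrowth. Duplicate wells of serially diluted compound (20% DMSO/saline) in RPMI pH 6.0, read at 630 nm pre- and post-incubation, under modified CLSI methods. IC50 means 50% growth inhibition against controls.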

C. krusei ATCC 6258 = assay: Antifungal broth dilution assay against C. krusei (modified CLSI); type: cell-based, Candida krusei; conditions: for X more potent than Amphotericin B: C. krusei, ratio of molar IC50 to amphotericin B; for C. krusei IC50 / IC50: in vitro
Procedure: (§1) General Experimental Procedures. All organisms were obtained from the American Type Culture Collection (Manassas, VA) and include the fungi Candida albicans ATCC 90028, C. glabrata ATCC 90030, C. krusei ATCC 6258, and Cryptococcus neoformans ATCC 90113, and the bacteria Staphylococcus aureus ATCC 29213 and methicillin-resistant S. aureus ATCC 33591 (MRS). All organisms were tested using modified versions of the CLSI (formerly NCCLS) methods. For all organisms, optical density was used to monitor growth (NCCLS, Reference Method for Broth Dilution Antifungal Susceptibility Testing of Yeasts; Approved Standard M27-A2. National Committee on Clinical Laboratory Standards, 2002 22 (15); and NCCLS, Methods for Dilution Antimicrobial Susceptibility Tests for Bacteria that Grow Aerobically; Approved Standard, Seventh Edition M7-A7. National Committee on Clinical Laboratory Standards, 2006. 26(2)).
(§2) Samples (dissolved in DMSO) were serially-diluted in 20% DMSO/saline and transferred (10 μL) in duplicate to 96 well flat bottom microplates. Inocula were prepared by correcting the OD630 of microbe suspensions in incubation broth [RPMI 1640/0.2% dextrose/0.03% glutamine/MOPS @ pH 6.0 (Cellgro) for Candida spp., Sabouraud Dextrose for C. neoformans, and cation-adjusted Mueller-Hinton (Difco) @ pH 7.3 for Staphylococcus spp. to afford an assay volume of […] and final target inocula of: Candida spp. and C. neoformans: 1.5×10^3, and Staphylococcus spp.: 5.0×10^5 CFU/ml. Final sample test concentrations were 1/100th the DMSO stock concentration. […] All organisms were read at either 530 nm using the Biotek Powerwave XS plate reader (Bio-Tek Instruments, Vermont) prior to and after incubation: Candida spp. at 35° C. for 46-50 h, Staphylococcus spp. at 35° C. for 16-20 h, and C. neoformans at 35° C. for 70-74 h. IC50s (concentrations that afford 50% inhibition relative to controls) were calculated using XLfit 4.2 software (IDBS, Alameda, CA) using fit model 201. The MIC is defined as the lowest test concentration that allows no detectable growth. Minimum fungicidal or bactericidal concentrations were determined by removing 5 μl from each clear (or blue) well, transferring to fresh media, and incubating as previously mentioned. The MFC/MBC is defined as the lowest test concentration that kills the organism (allows no growth).
(§3) Primary Analysis. Samples were tested in duplicate at one test concentration (50 μg/mL), and percent inhibitions were calculated relative to blank and growth controls. Samples showing 50% inhibition in at least one test organism were selected for dose response (Secondary) studies.
(§4) Secondary Analysis. Extracts from the Primary Assay, and first-run pure compounds and column fractions were tested in duplicate at 3 test concentrations (5-fold dilutions). Samples dissolved to 20 mg/mL in DMSO were tested at 200, 40, and 8 μg/mL. Samples dissolved to 2 mg/mL in DMSO were tested at 20, 4, and 0.8 μg/mL.

C. glabrata ATCC 90030 = assay: Antifungal broth dilution assay against C. glabrata (modified CLSI); type: cell-based, Candida glabrata; conditions: for X more potent than Amphotericin B: molar IC50 ratio versus amphotericin B
Procedure: as §1, §2, §3, §4

[2] = test system: L. donovani promastigotes; assay: Antileishmanial Alamar Blue assay on promastigotes; type: cell-based, Leishmania donovani; conditions: for X more potent than Pentamidine: L. donovani, ratio of molar IC50 to Pentamidine
Method in brief: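 Alamar Blue fluorescence (544/590 nm) quantified growth after 48 hours at 26° C of compound-treated promastigotes. Parasites were seeded at 5×10^5/mL in RPMI 1640 plus 10% FCS; drug range 50-3.1 μg/mL, and IC50 derived by plotting percent growth against test concentration.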

[3] = test system: Staphylococcus aureus ATCC 29213; assay: Antibacterial broth dilution assay against S. aureus (modified CLSI); type: cell-based; conditions: for S. aureus IC50 / IC50: in vitro; for IC50: converted with molecular weight; for X more potent than ciprofloxacen: molar IC50 ratio versus ciprofloxacen
Procedure: as §1, §2, §3, §4

[4] = in vitro, C. neoformans ATCC 90113
[5] = read-out: C. krusei IC50 (mol/L)
[6] = in vitro, converted with molecular weight
[7] = in vitro, C. neoformans ATCC 90113, read-out: C. neoformans IC50 (mol/L)
[8] = promastigotes, 48 hours, Alamar Blue
[9] = promastigotes, 48 hours, Alamar Blue, read-out: L. donavani IC50

Molecule	X more potent than Amphotericin B [1]	C. neoformans IC50 [1, 4] [µg/mL]	X more potent than Amphotericin B (C. krusei ATCC 6258)	C. krusei IC50 (C. krusei ATCC 6258) [µg/mL]	IC50 (C. krusei ATCC 6258; [5]) [µM]	C. glabrata IC50 (C. glabrata ATCC 90030; in vitro) [µg/mL]	IC50 (C. glabrata ATCC 90030; [6]) [nM]	X more potent than Amphotericin B (C. glabrata ATCC 90030)	IC50 [1, 7] [nM]	X more potent than Pentamidine [2]	L. donovani IC50 [2, 8] [µg/mL]	IC50 [2, 9] [µM]	other results
C[C@@H]1[C@H](O)[C@@H](C)/C=C/C=C/C=C/C=C/C=C/C=C/C=C/[C@H](O[C@@H]2O[C@H](C)[C@@H](O)[C@H](N)[C@@H]2O)C[C@@H]2O[C@](O)(C[C@@H](O)C[C@@H](O)[C@H](O)CC[C@@H](O)C[C@@H](O)CC(=O)O[C@H]1C)C[C@H](O)[C@H]2C(=O)O [AMB, Amphotericin B, reference compound]	1.00	0.220	1.00	1.380	1.49	1.310	1420	1.00	–	–	–	–	IC50 ([1]; read-out: IC50 against C. neoformans): 238 nM
CC(=O)[O-].F[P-](F)(F)(F)(F)F.[Ni+2].c1ccc(CN2CCN3CCCN(CC2)CCN(Cc2ccccc2)CC3)cc1 [AW039, [Ni(Bn2PBCyclen)(C2H3O2)]PF6]	0.02	7.640	0.17	5.610	8.56	5.030	7680	0.18	11700	0.14	24.41	37.2	S. aureus IC50 [3]: 4.73 µg/mL; IC50 [3]: 7.22 µM; X more potent than ciprofloxacen [3]: 0.04
c1c(CN2CCCN3CCN(CCCNCC2)CC3)cc(CN2CCCN3CCN(CCCNCC2)CC3)cc1CN1CCCN2CCN(CCCNCC1)CC2 [CDG19, tris-SB-cyclams]	1.05	–	0.25	–	–	–	–	0.11	–	0.27	–	–	IC50 ([1]; Cryptococcus neoformans, ATCC90113, in vitro, C. neoformans ATCC 90113, read-out: C. neoformans IC50 (mol/L)): 227 nM; IC50 ([1]; Cryptococcus neoformans, ATCC90113, in vitro, C. neoformans ATCC 90113, read-out: C. neoformans IC50 (μg/mL)): 0.18 µg/mL; IC50 ([2]; Leishmania donovani, 48 h, read-out: L. donavani IC50 (mol/L)): 20.1 µM; IC50 ([2]; Leishmania donovani, promastigotes, 48 hours, Alamar Blue, read-out: L. donovani IC50): 15.9 µg/mL; IC50 (C. krusei ATCC 6258; Pichia kudriavzevii, ATCC6258, read-out: C. krusei IC50 (mol/L)): 6.04 µM; IC50 (C. krusei ATCC 6258; Pichia kudriavzevii, ATCC6258, read-out: C. krusei IC50 (μg/mL)): 4.79 µg/mL; IC50 (C. glabrata ATCC 90030; Nakaseomyces glabratus, ATCC90030, in vitro): 9.8 µg/mL; IC50 (C. glabrata ATCC 90030; Nakaseomyces glabratus, ATCC90030, in vitro, converted with molecular weight): 12400 nM
Cl.Cl.Cl.Cl.Cl.Cl.Cl.Cl.c1cc(CN2CCNCCCN3CCN(CC3)CC2)cc(CN2CCNCCCN3CCN(CC3)CC2)c1 [OB46B, m-SB-homocyclens HCl salt]	0.75	0.280	0.16	7.420	9.06	–	–	–	–	0.13	34.26	41.9	IC50 ([1]; in vitro, C. neoformans ATCC 90113, HCl salt, read-out: C. neoformans IC50 (mol/L)): 318 nM
Clc1cc(CN2CCNCCN3CCN(CC3)CC2)cc(Cl)n1 [OB99, (dcp)1-SB-cyclen]	0.28	0.310	0.09	5.660	15.8	–	–	–	865	0.09	20.87	58.2	S. aureus IC50 [3]: 7.520 µg/mL; IC50 [3]: 21 µM; X more potent than ciprofloxacen [3]: 0.01
O=[N+]([O-])c1ccc(CC2CNCCN(Cc3ccc(CN4CCCN5CCN(CCCNCC4)CC5)cc3)CCCN3CCN(CC3)C2)cc1 (stereo not drawn) [SJA233, Bis-SB-C-Ar-NO2]	0.30	0.550	0.25	4.070	5.9	–	–	–	797	0.12	30.32	43.9	–
O=[N+]([O-])c1ccc(CC2CNCCN(Cc3ccc(CN4CCCN5CCN(CCCNCC4)CC5)cc3)CCCN3CCN(CC3)C2)cc1.[Cu+2].[Cu+2].[O-][Cl+3]([O-])([O-])[O-].[O-][Cl+3]([O-])([O-])[O-].[O-][Cl+3]([O-])([O-])[O-].[O-][Cl+3]([O-])([O-])[O-] (stereo not drawn) [SJA234, [Cu2(bis-SB-C-Ar-NO2)(ClO4)4]]	0.15	1.910	0.40	4.550	3.75	–	–	–	1570	0.21	30.31	24.9	–
O=[N+]([O-])[O-].O=[N+]([O-])[O-].O=[N+]([O-])[O-].O=[N+]([O-])[O-].O=[N+]([O-])c1ccc(CC2CNCCN(Cc3ccc(CN4CCCN5CCN(CCCNCC4)CC5)cc3)CCCN3CCN(CC3)C2)cc1.[Ni+2].[Ni+2] (stereo not drawn) [SJA236, [Ni2(bis-SB-C-Ar-NO2)(NO3)4]]	0.34	0.740	0.26	6.030	5.71	5.750	5450	0.26	701	0.23	24.85	23.6	–
[Br-].[Br-].c1cc(C[N+]23CCCN(CCN4CCCN(CC2)C4)C3)ccc1C[N+]12CCCN(CCN3CCCN(CC1)C3)C2 [SLK17A, [p-(BMBCyclams)]Br2]	0.02	8.250	1.21	0.880	1.24	1.317	1850	0.77	11600	0.23	16.69	23.4	–
[Co2(m-cyclam-homocyclen)(OAc)2][PF6]2 [AW049]	1.67	0.156	0.25	6.520	5.96	1.217	1110	1.28	142	0.34	16.93	15.5	S. aureus IC50 [3]: 5.600 µg/mL; IC50 [3]: 5.12 µM; X more potent than ciprofloxacen [3]: 0.05
[Zn3(tris-CB-Cyclams)(OAc)3][PF6]3•2.4NH4PF6 [BNS26]	0.07	6.840	2.49	1.220	0.6	2.140	1050	1.35	3360	–	–	–	–
